In the RepoRT retention time repository (doi:10.1021/acs.analchem.2c02893):

Test: RP, Thermo Scientific Acclaim RSLC 120 C18, 100 × 2.1 mm, 2.2 µm, 30 °C, 0.2 mL/min, estimated dead time 1.1 min; A: 90% water + 10% methanol + 0.01% formic acid + 5 mM ammonium formate, pH 3.61; B: methanol + 0.01% formic acid + 5 mM ammonium formate, pH 3.61; gradient (min/%B) 0/1 1/1 2/39 13/99.9 15/99.9 15.1/1 20.1/1
Conditions: stereoisomer not certain

| Structure (SMILES) | LC retention time [min] |
| --- | --- |
| C#CC1(O)C=CC2C3CCC4=CC(=O)CCC4C3CCC21CC (stereo unspecified) [Gestoden] | 9.46 |
| Cc1nnc2n1-c1ccc(Br)cc1C(c1ccccc1F)=NC2 [Flubromazolam] | 8.04 |
| CN(C)CCc1c[nH]c2ccc(CC3COC(=O)N3)cc12 (stereo unspecified) [Zolmitriptan] | 3.61 |
| C#CCOc1cc(-n2nc(C(C)(C)C)oc2=O)c(Cl)cc1Cl [Oxadiargyl] | 11.2 |
| CN1C(=O)CN=C(c2ccccc2Cl)c2cc(Cl)ccc21 [Diclazepam] | 9.19 |
| CC1CCC2(OC1)OC1CC3C4CC=C5CC(O)CCC5(C)C4CCC3(C)C1C2C (stereo unspecified) [Diosgenin] | 15.1 |
| CC(C)Nc1nc(NC(C)C)[nH]c(=O)n1 [Propazine-2-hydroxy (Prometon-Hydroxy)] | 5.96 |
| COC(=O)C(C)Oc1ccc(Oc2ccc(Cl)cc2Cl)cc1 (stereo unspecified) [Diclofop-methyl] | 12.3 |
| CC1(C)SC2C(NC(=O)COc3ccccc3)C(=O)N2C1C(=O)O (stereo unspecified) [Penicillin V] | 6.8 |
| COCCN(C(=O)CS(=O)(=O)O)c1c(C)cccc1C [Dimethachlor-ESA] | 5.54 |
| CCNC(=O)c1ccc(OC)cc1 [N-ethyl-4-methoxybenzamide] | 5.59 |
| COc1ccccc1CC(=O)c1cn(CCC2CCCCC2)c2ccccc12 [RCS-8] | 13 |
| CC(CCCNCCO)Nc1ccnc2cc(Cl)ccc12 (stereo unspecified) [Chloroquine-Desethylhydroxy] | 3.88 |
| CC(CC(C#N)(c1ccccc1)C(C)C)N(C)C (stereo unspecified) [Isoaminile] | 5.96 |
| CCOC(=O)CSc1nc(C(C)(C)C)nn1C(=O)N(C)C [Triazamate] | 6.38 |
| O=C(Nc1ccc(C(=O)O)c(O)c1)c1ccccc1 [Salicylic acid-4-Benzamido] | 5.47 |
| Cc1ccccc1C(OCCN(C)C)c1ccccc1 (stereo unspecified) [Orphenadrine] | 7.44 |
| O=C(O)CCCCC1SCC2NC(=O)NC21 (stereo unspecified) [Biotin] | 4.44 |
| CCCC1COC(Cn2cncn2)(c2ccc(Cl)cc2Cl)O1 (stereo unspecified) [Propiconazole] | 11 |
| NC(N)=NC(N)=NCCc1ccccc1 [Phenformin] | 4.38 |
| CC(COc1ccc(Oc2ccccc2)cc1)Oc1ccccn1 (stereo unspecified) [Pyriproxyfen] | 12.6 |
| O=C1CN=C(c2ccccc2Cl)c2cc(Br)ccc2N1 [Phenazepam] | 8.93 |

| Structure (SMILES) | LC retention time [min] |
| --- | --- |
| CN(C)C(=O)Nc1ccc(Oc2ccc(Cl)cc2)cc1 [Chloroxuron (Chloroxifenidim)] | 9.99 |
| CCC1OC(=O)C(C)C(OC2CC(C)(OC)C(O)C(C)O2)C(C)C(OC2OC(C)CC(N(C)C)C2O)C(C)(O)CC(C)C(=NOCOCCOC)C(C)C(O)C1(C)O (stereo unspecified) [Roxithromycin] | 9.23 |
| Cc1cc(NS(=O)(=O)c2ccc(NO)cc2)no1 [Sulfamethoxazole hydroxylamine] | 4.54 |
| Cc1c(N(C)C)c(=O)n(-c2ccccc2)n1C [Aminophenazone. Amidopyrin] | 5.21 |
| CNC(=O)Oc1cc(C)c(C)c(C)c1.CNC(=O)Oc1cc(C)cc(C)c1C [Trimethacarb (2.3.5-)] | 8.4 |
| O=C(Nc1cccc2ccccc12)c1cn(CCCCCF)c2ccncc12 [PCN-5F] | 11.8 |
| S=C1N=CN=C2N=CN=C12 [Mercaptopurine (6-)] | 2.61 |
| c1cncc(C2CCCN2)c1 (stereo unspecified) [Nicotine-Nor] | 2.44 |
| c1ccc(CN(CCN2CCCC2)c2ccccc2)cc1 [Histapyrrodine] | 7.19 |
| CCC(CC)(CNC(=O)CCCO)c1cccc(OC)c1 [Embutramide] | 8.98 |
| Cc1ccc2c(-c3ccccc3)nc(=O)n(C(C)C)c2c1 [Proquazone] | 9.61 |
| COc1nccnc1NS(=O)(=O)c1ccc(N)cc1 [Sulfalene] | 4.44 |
| O=C1OC(=O)c2ccccc21 [PX-1] | 9.58 |
| COC=C(C(=O)OC)c1ccccc1COc1cccc(C(F)(F)F)n1 [Picoxystrobin] | 10.5 |
| Cc1ccc(N(SC(F)(Cl)Cl)S(=O)(=O)N(C)C)cc1 [Tolyfluanid] | 10.8 |
| O=C1CC2(CCCCC2)CN1 [3,3-pentamethylene-4-butyrolactam] | 6.64 |
| CON=C(Cc1cccnc1)c1ccc(Cl)cc1Cl [Pyrifenox] | 10.1 |
| CCCCCn1c(O)c(C(=O)c2cccc3ccccc23)c2ccccc21 [JWH-018-M-2-OH-Ind] | 14 |
| CCOP(=O)(Sc1ccccc1)Sc1ccccc1 [Edifenphos] | 10.8 |
| COc1ccc2c(c1)C13CCCCC1C(C2)N(C)CC3 (stereo unspecified) [Dextromethorphan] | 6.51 |
| CNCC(C)CN1c2ccccc2Sc2ccc(OC)cc21 (stereo unspecified) [Levomepromazine-Nor] | 8.33 |
| CCN(Cc1ccc(Cl)nc1)C(=C[N+](=O)[O-])NC [Nitenpyram] | 3.9 |

| Structure (SMILES) | LC retention time [min] |
| --- | --- |
| CNCCCC12CCC(c3ccccc31)c1ccccc12 [Maprotiline] | 8.08 |
| C[N+](C)(C)CCCl [Chlormequat] | 1.67 |
| CNC(C)Cc1ccccc1 (stereo unspecified) [Amphetamine-Methyl (methamphetamine)] | 4.21 |
| CCc1cccc(C)c1N1C(=O)COCC1C (stereo unspecified) [Metolachlor-morpholinon] | 7.89 |
| COc1cc(OC)nc(NC(=O)NS(=O)(=O)c2ncccc2OCC(F)(F)F)n1 [Trifloxysulfuron] | 8.11 |
| CC(C)(C)NCC(O)COc1cccc2c1CCC(=O)N2 (stereo unspecified) [Carteolol] | 3.91 |
| CC(N)Cc1ccccc1F (stereo unspecified) [Amphetamine (2-F-)] | 4.24 |
| Cc1cc(C)nc(Nc2ccccc2)n1 [Pyrimethanil] | 9.44 |
| O=C(O)C1=CC=C2N=NN=C2C1 [Benzotriazole-5-carboxylic acid] | 3.81 |
| CC(=O)Oc1c(C)cc(OCC(O)CNC(C)C)c(C)c1C (stereo unspecified) [Metipranolol] | 6.28 |
| COc1cc(OC)n2nc(S(=O)(=O)Nc3c(Cl)ccc(C)c3Cl)nc2n1 [Metosulam] | 7.1 |
| Nc1ccc(S(=O)(=O)c2ccc(N)cc2)cc1 [Dapsone] | 4.13 |
| c1ccc2c(c1)Sc1ccccc1N2CC1CN2CCC1CC2 (stereo unspecified) [Mequitazine] | 8.29 |
| Nc1nc(=S)c2[nH]cnc2[nH]1 [Thioguanine] | 2.53 |
| CC(=O)Oc1ccc(C(c2ccc(OC(C)=O)cc2)c2ccccn2)cc1 [Bisacodyl] | 8.92 |
| CC(C)NCC(O)COc1ccc(CCOCC2CC2)cc1 (stereo unspecified) [Betaxolol] | 6.68 |
| CC(=O)OCCN1CCN(CCCN2c3ccccc3Sc3ccc(Cl)cc32)CC1 [Thiopropazate] | 9.61 |
| N#Cc1c[nH]cc1-c1cccc2c1OC(F)(F)O2 [Fludioxonil] | 9.48 |
| COc1ccc(C2Sc3ccccc3N(CCN(C)C)C(=O)C2O)cc1 (stereo unspecified) [Diltiazem-Deacetyl] | 6.41 |
| O=C(c1cccc2ccccc12)c1nn(CCCCCF)c2ccccc12 [THJ-2201] | 11.9 |
| CCCC(Cc1ccccc1)N1CCCC1 (stereo unspecified) [Prolintane] | 5.56 |
| O=C(CCCN1CCC(O)(c2ccc(Br)cc2)CC1)c1ccc(F)cc1 [Bromperidol] | 7.12 |

| Structure (SMILES) | LC retention time [min] |
| --- | --- |
| COCCOc1ccccc1S(=O)(=O)NC(=O)Nc1nc(OC)nc(OC)n1 [Cinosulfuron] | 6.36 |
| CC(C)(C(=O)O)c1ccc(C(O)CCCN2CCC(C(O)(c3ccccc3)c3ccccc3)CC2)cc1 (stereo unspecified) [Fexofenadine] | 7.68 |
| COc1c(Cl)ccc(Cl)c1C(=O)O [Dicamba] | 4.97 |
| Cc1[nH]c(=O)n(C(C)(C)C)c(=O)c1Cl [Terbacil] | 7.33 |
| O=C1Cc2cc(CCN3CCN(c4nsc5ccccc45)CC3)c(Cl)cc2N1 [Ziprasidone] | 8.03 |
| CC12Cc3cn[nH]c3CC1CCC1C2CCC2(C)C1CCC2(C)O (stereo unspecified) [Stanozolol] | 11.3 |
| CN(C)CCOCC(=O)NC12CC3CC(CC(C3)C1)C2 [Tromantadine] | 6.64 |
| CC(C)(C)NCC(O)c1ccc(O)c(CO)c1 (stereo unspecified) [Albuterol / Salbutamol] | 3.23 |
| CC(=O)N(CC(O)CO)c1c(I)c(C(=O)NCC(O)CO)c(I)c(C(=O)NCC(O)CO)c1I (stereo unspecified) [Iohexol] | 2.98 |
| COC(=O)C1C(O)CCC2CN3CCc4c([nH]c5ccccc45)C3CC21 (stereo unspecified) [Yohimbine] | 5.08 |
| OC(CCN1CCCCC1)(c1ccccc1)C1CC2C=CC1C2 (stereo unspecified) [Biperidene] | 7.63 |
| CC(C)(C)NCC(O)COc1cccc2c1CCCC2=O (stereo unspecified) [Levobunolol] | 4.84 |
| CC(C)Nc1nc(Cl)nc(NC2CC2)n1 [Cyprazin] | 8.22 |
| CCC(N)Cc1c[nH]c2ccccc12 (stereo not drawn) [ET- alpha] | 5.04 |
| CCCCCCCC[N+](C)(C)C [Trimethyloctylammonium] | 6.08 |
| CCC1OC(=O)C(C)C(OC2CC(C)(OC)C(O)C(C)O2)C(C)C(OC2OC(C)CC(N(C)C)C2O)C(C)(O)CC(C)C(=O)C(C)C(O)C1(C)O (stereo unspecified) [Erythromycin] | 8 |
| CC1(C)C(C=C(Cl)C(F)(F)F)C1C(=O)OC(C#N)c1cccc(Oc2ccccc2)c1 (stereo unspecified) [Cyhalothrin (lambda-)] | 13 |
| CCCCc1nc(Cl)c(CO)n1Cc1ccc(-c2ccccc2-c2nn[nH]n2)cc1 [Losartan] | 8.19 |
| CC1COC(=O)c2cc3c(cc21)C(C)(C)C(C)C3(C)C (stereo unspecified) [Galaxolidone] | 12 |
| CCOS(=O)(=O)O [Ethyl Sulphate (NH4)] | 1.58 |
